Starred links: 1 amine or outer side, 2 acyl side, 3 side chain; linkers in the order of their positions; H or OH if unused. Non-standard residues stand in square brackets, D forms with d. Residues, ends and D or L forms follow the SMILES beside them. Ahppa(3S,4S) = O=C(C[C@H](O)[C@H](Cc1ccccc1)N[*:1])[*:2]; dNMeF = CN[C@H](Cc1ccccc1)C(=O)O; NMeQ = CN[C@@H](CCC(N)=O)C(=O)O; Lac = C[C@H](O)C(=O)O
Target: BACE1 (Homo sapiens, UniProt P56817)
Assay: Antiproteolytic activity assay against BACE1
Format: biochemical
Conditions: fold less potent against BACE1 than against cathepsins D and E

Chain of BACE1 (P56817 46-501): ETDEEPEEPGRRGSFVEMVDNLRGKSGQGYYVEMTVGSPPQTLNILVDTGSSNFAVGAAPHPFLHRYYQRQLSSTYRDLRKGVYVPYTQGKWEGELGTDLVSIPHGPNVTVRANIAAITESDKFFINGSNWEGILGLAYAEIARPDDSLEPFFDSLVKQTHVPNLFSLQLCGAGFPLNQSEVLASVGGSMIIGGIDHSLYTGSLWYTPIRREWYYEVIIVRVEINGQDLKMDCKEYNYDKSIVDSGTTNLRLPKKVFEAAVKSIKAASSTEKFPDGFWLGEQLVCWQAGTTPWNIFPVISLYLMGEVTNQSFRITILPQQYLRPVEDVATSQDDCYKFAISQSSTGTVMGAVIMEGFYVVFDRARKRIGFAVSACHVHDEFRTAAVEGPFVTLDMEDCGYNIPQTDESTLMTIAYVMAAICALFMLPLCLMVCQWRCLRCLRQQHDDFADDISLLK

CC[C@H](C)[C@H](NC(=O)C[C@H](O)[C@H](Cc1ccccc1)NC(=O)[C@H](CCC(N)=O)N(C)C(=O)[C@@H](NC(=O)[C@H](C)O)[C@@H](C)CC)C(=O)NCC(=O)N(C)[C@H](Cc1ccccc1)C(=O)N1CCC[C@H]1C(=O)OC [Tasiamide F (1), Tasiamide F] (H-[Lac]I[NMeQ][Ahppa(3S,4S)]IG[dNMeF]P-OMe)
Selectivity ratio IC50 BACE1/CatD–E: 12–30
